Consider 12 compounds from ChEMBL document CHEMBL1201862, “PubChem BioAssay data set” (2004).

Among the test systems are A498; HCT-116; SF-539; KM12; NCI-H522; SK-MEL-5; KM-20L2; SNB-78; TK-10; HOP-92; SNB-75; LOX IMVI; CAKI-1; MCF7; NCI/ADR-RES; MDA-MB-435; T47D; MDA-N; MDA-MB-231; PC-3.
Common to all, as to assay: NCI tumour cell line growth inhibition, 48 h

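These data come from cells grown in 96-well plates and exposed to compound for 48 hours at five concentrations. GI50 is the concentration that inhibits growth by half.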 The source made the active and inactive calls. No stated cut-off is given here; in the data, active = GI50 up to about 1.1 µM and inactive = higher.

As for `CC1=N/C(=C\c2ccc([N+](=O)[O-])cc2)C(=O)O1`, the GI50 in the assay on A498, with HCT-116, in the assay with SF-539, with KM12, in the assay on NCI-H522 and in the assay on SK-MEL-5 was > 100 µM (inactive) in each case. The GI50 in the assay on KM-20L2, in the assay with SNB-78, with TK-10 and in the assay with HOP-92 was > 100 µM (inactive) in each case.
Consider `CCOc1ccccc1NC(=O)C1=C(C)NC(C)=C(C(=O)Nc2ccccc2OCC)C1c1ccc(NC(C)=O)cc1`, for which the GI50 in the assay on A498 is 23.8 µM (inactive); in the assay on SF-539 it was 41.7 µM (inactive); with KM12 it was 24.8 µM (inactive); in the assay on NCI-H522 it was 6.25 µM (inactive); in the assay on SNB-75, 9.75 µM (inactive); with SK-MEL-5, 40.7 µM (inactive). The GI50 with KM-20L2 was 25.8 µM (inactive); in the assay with LOX IMVI, 38.9 µM (inactive); in the assay with SNB-78, 40.9 µM (inactive); in the assay with TK-10, 47.6 µM (inactive); with HOP-92 it was 9.62 µM (inactive); with CAKI-1, 17.2 µM (inactive).
As for `c1ccc(Nc2nnc(-c3nsc4ccccc34)o2)cc1`, the GI50 in the assay with HCT-116 is 74.1 µM (inactive); in the assay on SF-539, > 100 µM (inactive); with KM12, > 100 µM (inactive); in the assay with SNB-75 it was 34.9 µM (inactive); in the assay with SK-MEL-5 it was > 100 µM (inactive); with KM-20L2 it was > 100 µM (inactive). In addition, the GI50 in the assay with LOX IMVI was > 100 µM (inactive); in the assay with SNB-78, 89.5 µM (inactive); with TK-10, > 100 µM (inactive); with HOP-92, 19.2 µM (inactive).
For the compound `NC1c2ccccc2Nc2ccccc21`, the GI50 in the assay with A498 is 8.34 µM (inactive); with HCT-116, 3.23 µM (inactive); in the assay with KM12, 4.22 µM (inactive); with NCI-H522, 2.15 µM (inactive); in the assay on SNB-75, 11.8 µM (inactive); in the assay on SK-MEL-5, 5.28 µM (inactive). In addition, the GI50 with KM-20L2 was 3.76 µM (inactive); with LOX IMVI it was 3.53 µM (inactive); in the assay with SNB-78, 9.1 µM (inactive); in the assay with TK-10, 5.82 µM (inactive); in the assay with HOP-92, 3.27 µM (inactive); in the assay with CAKI-1, 3.63 µM (inactive).
Turning to `CCCCn1cc[n+](-c2nc3ccccc3n2C)c1`, the GI50 was > 100 µM (inactive) with HCT-116; > 100 µM (inactive) with SF-539; > 100 µM (inactive) in the assay with NCI-H522; 45.4 µM (inactive) in the assay on SNB-75; > 100 µM (inactive) in the assay on SK-MEL-5; > 100 µM (inactive) in the assay on KM-20L2. For the same compound, the GI50 in the assay on LOX IMVI, in the assay on SNB-78, in the assay with TK-10 and in the assay on CAKI-1 was > 100 µM (inactive) throughout.
As to `CSCSCC(CO)NC(=O)/C(C)=C\c1c(C)[nH]c(=O)[nH]c1=O` (configuration not stated), the GI50 with A498 was > 250 µM (inactive); with HCT-116 it was > 250 µM (inactive); in the assay with SF-539 it was > 250 µM (inactive); in the assay with KM12, 200 µM (inactive); with NCI-H522, > 250 µM (inactive); in the assay on MCF7, > 250 µM (inactive). In addition, the GI50 in the assay with SNB-75, with SK-MEL-5, with NCI/ADR-RES, with KM-20L2, in the assay on LOX IMVI and in the assay on SNB-78 was > 250 µM (inactive) throughout. Also, the GI50 with HOP-92 is 20.3 µM (inactive); in the assay with CAKI-1, 18.3 µM (inactive).
Take `COC1=C(OC)C(=O)c2cc(SC)c(=O)c(SC)cc2C1=O`: the GI50 in the assay with A498 is 24.5 µM (inactive); with HCT-116, 20 µM (inactive); with SF-539, 12.1 µM (inactive); in the assay on KM12, 96.4 µM (inactive); with NCI-H522, 17.1 µM (inactive); with SNB-75, 13.6 µM (inactive). The GI50 in the assay with SK-MEL-5 is 12.4 µM (inactive); with KM-20L2, > 100 µM (inactive); in the assay with LOX IMVI, 4.48 µM (inactive); in the assay on TK-10, 59 µM (inactive); in the assay on HOP-92 it was 17.7 µM (inactive); in the assay with CAKI-1, 72.4 µM (inactive).
As to `CCOC(=O)C1=C(c2ccccc2)N(C(C)=O)Cc2ccccc21`, the GI50 is 14.5 µM (inactive) in the assay on HCT-116; 16.3 µM (inactive) in the assay on SF-539; 15 µM (inactive) in the assay with KM12; 16.9 µM (inactive) in the assay on NCI-H522; 18.6 µM (inactive) in the assay on SNB-75; 12.6 µM (inactive) in the assay on SK-MEL-5. Moreover, the GI50 in the assay with KM-20L2 was 21.6 µM (inactive); in the assay with LOX IMVI, 16 µM (inactive); in the assay with TK-10, 45.3 µM (inactive); in the assay with HOP-92, 3.1 µM (inactive).
As for `COc1ccc(/C=C2/C(=O)N(C(=O)c3ccccc3O)N=C2C)cc1`, the GI50 is 50 nM (active) in the assay on MDA-MB-435; 0.0202 µM (active) with A498; 0.091 µM (active) with HCT-116; 4.32 µM (inactive) in the assay with T47D; 0.109 µM (active) in the assay on SF-539; 0.356 µM (active) in the assay with NCI-H522. The GI50 in the assay with MCF7 is 0.617 µM (active); in the assay on SK-MEL-5 it was 0.218 µM (active); in the assay with MDA-N, 125 nM (active); in the assay with NCI/ADR-RES, 0.984 µM (active); with KM-20L2, 16.5 µM (inactive); with LOX IMVI it was 0.28 µM (active). Further, the GI50 with SNB-78 is 0.033 µM (active); in the assay on TK-10 it was 6.04 µM (inactive); in the assay with MDA-MB-231 it was 126 nM (active); in the assay on PC-3 it was 535 nM (active); in the assay on HOP-92, 0.0441 µM (active); in the assay with CAKI-1, 0.0962 µM (active).
Consider `CC(=O)Oc1ccc(C2COc3cc(OC(C)=O)c(OC(C)=O)cc3C2)cc1` (configuration not stated), for which the GI50 in the assay on A498 was 9.04 µM (inactive); with HCT-116, 17.4 µM (inactive); with SF-539 it was 11.7 µM (inactive); in the assay with KM12, 25 µM (inactive); with NCI-H522, 2.8 µM (inactive); in the assay on MCF7, 19 µM (inactive). The GI50 is 6.07 µM (inactive) in the assay on SNB-75; 2.95 µM (inactive) in the assay on SK-MEL-5; 20.8 µM (inactive) with NCI/ADR-RES; 37.2 µM (inactive) in the assay with KM-20L2; > 37.1 µM (inactive) with LOX IMVI; 24.3 µM (inactive) with SNB-78. Besides, the GI50 in the assay on HOP-92 is 3.88 µM (inactive); with CAKI-1, 16.3 µM (inactive).
For the compound `CC(C)OP(=O)(OC(C)C)c1ncn(-c2ccc([N+](=O)[O-])cc2)n1`, the GI50 in the assay with A498 was > 100 µM (inactive); in the assay on HCT-116, > 100 µM (inactive); in the assay on SF-539 it was > 100 µM (inactive); in the assay with KM12 it was > 100 µM (inactive); in the assay with NCI-H522, > 100 µM (inactive); in the assay on SNB-75, 41.1 µM (inactive). The GI50 in the assay on SK-MEL-5, with KM-20L2, in the assay with TK-10, in the assay with HOP-92 and with CAKI-1 was > 100 µM (inactive) in each case.
Regarding `C/C(=C\c1ccccc1)C(=O)CCN1CCOCC1`, the GI50 was > 56 µM (inactive) in the assay on A498; 28 µM (inactive) in the assay on HCT-116; 18.3 µM (inactive) in the assay on SF-539; 14.9 µM (inactive) with KM12; 7.94 µM (inactive) in the assay with NCI-H522; 7.87 µM (inactive) in the assay with MCF7. For the same compound, the GI50 in the assay on SNB-75 was 23.7 µM (inactive); with SK-MEL-5, 33 µM (inactive); in the assay on NCI/ADR-RES, 21.8 µM (inactive); in the assay with KM-20L2, 19.5 µM (inactive); in the assay with LOX IMVI, 16.9 µM (inactive); with SNB-78, 15.6 µM (inactive). In addition, the GI50 in the assay with HOP-92 was 20.4 µM (inactive); with CAKI-1, 18.1 µM (inactive).
